According to ChEMBL document CHEMBL5233274, “Current Landscape and Future Perspective of Oxazolidinone Scaffolds Containing Antibacterial Drugs” (J Med Chem, 2021):
≈ marks a conversion by molar mass, not a printed value. Blank lines part the entries; values can stand above or below the compound they belong to.

Assays:
[1] = test system: Escherichia coli; assay: Antibacterial activity against Escherichia coli assessed as inhibition of bacterial growth incubated for 18 hrs by CLSI protocol based method; format: functional
[2] = test system: Pseudomonas aeruginosa; assay: Antibacterial activity against Pseudomonas aeruginosa assessed as inhibition of bacterial growth incubated for 18 hrs by CLSI protocol based method; format: functional
[3] = test system: Bacillus subtilis; assay: Antibacterial activity against Bacillus subtilis assessed as zone of inhibition at 100 ug/ml; format: functional; settings: read-out: IZ
[4] = test system: Escherichia coli; assay: Antimicrobial activity against Escherichia coli assessed as inhibition zone at 200 ug/ml incubated for 24 hrs by disk diffusion method; format: functional; settings: read-out: IZ
[5] = test system: Bacillus subtilis; assay: Antimicrobial activity against Bacillus subtilis assessed as inhibition zone at 200 ug/ml incubated for 24 hrs by disk diffusion method; format: functional; settings: read-out: IZ
[6] = test system: Fusarium oxysporum; assay: Antimicrobial activity against Fusarium oxysporum assessed as inhibition zone at 200 ug/ml incubated for 24 hrs by disk diffusion method; format: functional; settings: read-out: IZ
[7] = test system: MCF7; assay: Cytotoxicity against human MCF7 cells assessed as reduction in cell viability by tryphan blue exclusion dye method; format: functional, cell-based
[8] = test system: HT-29; assay: Cytotoxicity against human HT-29 cells assessed as reduction in cell viability by tryphan blue exclusion dye method; format: functional, cell-based
[9] = test system: Staphylococcus aureus; assay: Antibacterial activity against linezolid and methicillin-resistant Staphylococcus aureus assessed as inhibition of bacterial growth; format: functional
[10] = test system: Enterococcus; assay: Antibacterial activity against linezolid and vancomycin-resistant Enterococcus assessed as inhibition of bacterial growth; format: functional
[11] = test system: Bacillus subtilis; assay: Antibacterial activity against Bacillus subtilis assessed as inhibition of bacterial growth measured per 100 uL incubated for 24 hrs by agar well diffusion method; format: functional
[12] = test system: Staphylococcus aureus; assay: Antibacterial activity against Staphylococcus aureus assessed as inhibition of bacterial growth measured per 100 uL incubated for 24 hrs by agar well diffusion method; format: functional
[13] = test system: Escherichia coli; assay: Antibacterial activity against Escherichia coli assessed as inhibition of bacterial growth measured per 100 uL incubated for 24 hrs by agar well diffusion method; format: functional
[14] = test system: Pseudomonas aeruginosa; assay: Antibacterial activity against Pseudomonas aeruginosa assessed as inhibition of bacterial growth measured per 100 uL incubated for 24 hrs by agar well diffusion method; format: functional
[15] = test system: Candida albicans; assay: Antifungal activity against Candida albicans assessed as inhibition of fungal growth incubated measured per 100 uL incubated for 24 hrs by agar well diffusion method; format: functional
[16] = test system: Saccharomyces cerevisiae; assay: Antifungal activity against Saccharomyces cerevisiae assessed as inhibition of fungal growth incubated measured per 100 uL incubated for 24 hrs by agar well diffusion method; format: functional
[17] = test system: Staphylococcus aureus; assay: Antibacterial activity against Staphylococcus aureus NCIM 5257 assessed as inhibition of bacterial growth incubated for 24 hrs by serial broth dilution method; format: functional
[18] = test system: Bacillus subtilis; assay: Antibacterial activity against Bacillus subtilis NCIM 2097 assessed as inhibition of bacterial growth incubated for 24 hrs by serial broth dilution method; format: functional
[19] = test system: Enterococcus faecalis; assay: Antibacterial activity against Streptococcus faecalis NCIM 2080 assessed as inhibition of bacterial growth incubated for 24 hrs by serial dilution method; format: functional
[20] = test system: Escherichia coli; assay: Antibacterial activity against Escherichia coli NCIM 2065 assessed as inhibition of bacterial growth incubated for 24 hrs by serial dilution method; format: functional
[21] = test system: Klebsiella pneumoniae; assay: Antibacterial activity against Klebsiella pneumoniae NCIM 5289 assessed as inhibition of bacterial growth incubated for 24 hrs by serial dilution method; format: functional
[22] = test system: Pseudomonas aeruginosa; assay: Antibacterial activity against Pseudomonas aeruginosa NCIM 5210 assessed as inhibition of bacterial growth incubated for 24 hrs by serial dilution method; format: functional
[23] = test system: Candida albicans; assay: Antifungal activity against Candida albicans NCIM 3628 assessed as inhibition of fungal growth incubated for 48 hrs by serial dilution method; format: functional
[24] = test system: Aspergillus niger; assay: Antifungal activity against Aspergillus niger NCIM 1317 assessed as inhibition of fungal growth incubated for 48 hrs by serial dilution method; format: functional

MIC [1]: 0.02 µg/mL (≈ 0.0553 µM)
MIC [2]: > 10 µg/mL
SMILES: Nc1ccc(C#CC#Cc2ccc(N3C[C@@H](C(=O)NO)OC3=O)cc2)cc1

SMILES: CCCN1C(=O)C(N2C(=O)OCC2Cc2ccc(/N=C/c3ccccc3)cc2)C1c1ccc(OC)cc1OC (stereo unspecified)
zone of inhibition at 100 µg/mL [3]: 23 mm

SMILES: O=C1NC2(CO1)O/C(=C\c1ccc(Cl)cc1)C(=O)N2CCCNc1ccnc2cc(Cl)ccc12 (stereo unspecified)
zone of inhibition at 200 µg/mL [4]: 13 mm
zone of inhibition at 200 µg/mL [5]: 14 mm
zone of inhibition at 200 µg/mL [6]: 10 mm
IC50 [7]: 16.1 µg/mL (≈ 32.2 µM)
IC50 [8]: 32.4 µg/mL (≈ 64.9 µM)

SMILES: O=C1NC2(CO1)O/C(=C\c1ccc([N+](=O)[O-])cc1)C(=O)N2CCCNc1ccnc2cc(Cl)ccc12 (stereo unspecified)
zone of inhibition at 200 µg/mL [4]: 14 mm
zone of inhibition at 200 µg/mL [5]: 14 mm
zone of inhibition at 200 µg/mL [6]: 14 mm

SMILES: O=C(NC[C@H]1CN(c2ccc(N3CCOCC3)c(F)c2)C(=O)O1)C(Cl)Cl
MIC [9]: 0.25 µg/mL (≈ 0.615 µM)
MIC [10]: 0.25 µg/mL (≈ 0.615 µM)

SMILES: O=C(CCl)NC[C@H]1CN(c2ccc(N3CCOCC3)c(F)c2)C(=O)O1
MIC [9]: 0.13 µg/mL (≈ 0.35 µM)
MIC [10]: 0.13 µg/mL (≈ 0.35 µM)

MIC [1]: 0.03 µg/mL (≈ 0.0967 µM)
MIC [2]: > 10 µg/mL
SMILES: O=C(NO)[C@@H]1CN(c2ccc(C#CC#CC3CC3)cc2)C(=O)O1

SMILES: COc1ccc(/C=C2\OC3(COC(=O)N3)N(CCCNc3ccnc4cc(Cl)ccc34)C2=O)cc1 (stereo unspecified)
zone of inhibition at 200 µg/mL [4]: 11 mm
zone of inhibition at 200 µg/mL [5]: 10 mm
zone of inhibition at 200 µg/mL [6]: 9 mm

MIC [11]: 12.5 µg
MIC [12]: 12.5 µg
MIC [13]: 12.5 µg
MIC [14]: 12.5 µg
MIC [15]: 12.5 µg
MIC [16]: 12.5 µg
SMILES: O=C1NC(Cc2ccc(Nc3nc(-c4cccc(Cl)c4)cs3)cc2)CO1 (stereo unspecified)

MIC [17]: 3.12 µg/mL (≈ 7.49 µM)
MIC [18]: 3.12 µg/mL (≈ 7.49 µM)
MIC [19]: 3.12 µg/mL (≈ 7.49 µM)
MIC [20]: 3.12 µg/mL (≈ 7.49 µM)
MIC [21]: 3.12 µg/mL (≈ 7.49 µM)
MIC [22]: 3.12 µg/mL (≈ 7.49 µM)
MIC [23]: 12.5 µg/mL (≈ 29.9 µM)
MIC [24]: 12.5 µg/mL (≈ 29.9 µM)
SMILES: O=C(/C=C/c1ccccc1F)c1ccc(-c2ccc(N3C[C@H](CO)OC3=O)cc2)cc1

MIC [11]: 25 µg
MIC [12]: 6.25 µg
MIC [13]: 12.5 µg
MIC [14]: 12.5 µg
MIC [15]: 12.5 µg
MIC [16]: 12.5 µg
SMILES: O=C1NC(Cc2ccc(Nc3nc(-c4ccc5ccccc5c4)cs3)cc2)CO1 (stereo unspecified)

MIC [11]: 6.25 µg
MIC [12]: 6.25 µg
MIC [13]: 12.5 µg
MIC [14]: 12.5 µg
MIC [15]: 12.5 µg
MIC [16]: 12.5 µg
SMILES: O=C1NC(Cc2ccc(Nc3nc(-c4ccc(Cl)cc4)cs3)cc2)CO1 (stereo unspecified)

MIC [11]: 6.25 µg
MIC [12]: 6.25 µg
MIC [13]: 12.5 µg
MIC [14]: 12.5 µg
MIC [15]: 12.5 µg
MIC [16]: 12.5 µg
SMILES: O=C1NC(Cc2ccc(Nc3nc(-c4ccc(Br)cc4)cs3)cc2)CO1 (stereo unspecified)

MIC [1]: 50 µg/mL (≈ 168 µM)
MIC [2]: > 10 µg/mL
SMILES: O=C(NO)[C@@H]1CN(c2ccc(-c3ccccc3)cc2)C(=O)O1

MIC [1]: 6.25 µg/mL (≈ 13.6 µM)
MIC [2]: > 10 µg/mL
SMILES: CS(=O)(=O)CCCOc1ccc(C#Cc2ccc(N3C[C@@H](C(=O)NO)OC3=O)cc2)cc1
